Source: US9636339B2, “Phenyl-dihydropyridine derivatives as aldosterone synthase inhibitors” (Hoffmann-La Roche Inc., priority 2013, dated 2017)

What was measured:
human CYP11B2 = human CYP11B2 (Homo sapiens (Human), UniProt P19099); assay: G-402 cellular enzyme assay, human CYP11B2 (aldosterone release); assay type: cell-based; conditions: G-402 cells, 1 μM Deoxycorticosterone
Text: (§1) Herein we identified the use of the G-402 cell line as a host cell to ectopically express (transiently or stably) enzymes of the CYP11 family. Specifically we developed stable G-402 cells expressing ectopically human CYP11B1, human CYP11B2, human CYP11A1, cynmolgus CYP11B1 or cynomolgus CYP11B2 enzyme activity. Importantly the identified cell line G-402 expresses co-factors (adrenodoxin and adrenodoxin reductase) important for the activity of the CYP11 family and no relevant enzyme activity of the CYP11 family (in comparison to H295R cells) was detected in these cells. Therefore the G-402 cell line is uniquely suited as a host cell for the ectopic expression of enzymes from the CYP11 family. G-402 cells can be obtained from ATCC (CRL-1440) and were originally derived from a renal leiomyoblastoma.
(§2) The expression plasmids contains the ORF for either human/cyno CYP11B1 or CYP11B2 under the control of a suitable promoter (CMV-promoter) and a suitable resistance marker (neomycin). Using standard techniques the expression plasmid is transfected into G-402 cells and these cells are then selected for expressing the given resistance markers. Individual cell-clones are then selected and assessed for displaying the desired enzymatic activity using 11-Deoxycorticosterone (Cyp11B2) or 11-Deoxycortisol (Cyp11B1) as a substrate.
(§3) G-402 cells expressing CYP11 constructs were established as described above and maintained in McCoy's 5a Medium Modified, ATCC Catalog No. 30-2007 containing 10% FCS and 400 μg/ml G418 (Geneticin) at 37° C. under an atmosphere of 5% CO2/95% air. Cellular enzyme assays were performed in DMEM/F12 medium containing 2.5% charcoal treated FCS and appropriate concentration of substrate (0.3-10 uM 11-Deoxycorticosterone, 11-Deoxycortisol or Corticosterone). For assaying enzymatic activity, cells were plated onto 96 well plates and incubated for 16 h. An aliquot of the supernatant is then transferred and analyzed for the concentration of the expected product (Aldosterone for CYP11B2; Cortisol for CYP11B1). The concentrations of these steroids can be determined using HTRF assays from CisBio analyzing either Aldosterone or Cortisol.
(§4) Inhibition of the release of produced steroids can be used as a measure of the respective enzyme inhibition by test compounds added during the cellular enzyme assay. The dose dependent inhibition of enzymatic activity by a compound is calculated by means of plotting added inhibitor concentrations (x-axes) vs. measured steroid/product level (y-axes). The inhibition is then calculated by fitting the following 4-parameter sigmoidal function (Morgan-Mercer-Flodin (MMF) model) to the raw data points using the least squares method:
(§5) [formula] wherein, A is the maximum y value, B is the EC50 factor determined using XLFit, C is the minimum y value and D is the slope value.
(§6) EC50 values for compounds claimed herein were tested with the G402-based assay system described. Cyp11B2 enzyme activity was tested in presence of 1 μM Deoxycorticosterone and variable amounts of inhibitors; Cyp11B1 enzyme activity was tested in presence of 1 μM Deoxycortisol and variable amounts of inhibitors.

human CYP11B1 = human CYP11B1 (Homo sapiens (Human), UniProt P15538); assay: G-402 cellular enzyme assay, human CYP11B1 (cortisol release); assay type: cell-based; conditions: G-402 cells, 1 μM Deoxycortisol
Text: as §1, §2, §3, §4, §5, §6

[1] = tested on: rat model of chronic kidney disease; conditions: cited from earlier work; for plasma aldosterone: FAD286: 4 weeks of treatment, spironolactone: 4 and 8 weeks of treatment; for angiotensin II and salt-stimulated PAI-1 mRNA expression: aorta and heart; for renal effects of angiotensin II and high salt (albuminuria, azotemia, renovascular hypertrophy, glomerular injury, PAI-1, osteopontin mRNA, tubulointerstitial fibrosis): rat, in vivo
[2] = tested on: rats with experimental heart failure; conditions: rat, in vivo; cited from earlier work
[3] = tested on: patients with primary aldosteronism; conditions: oral; cited from earlier work

Chain of human CYP11B1 (P15538 25-503): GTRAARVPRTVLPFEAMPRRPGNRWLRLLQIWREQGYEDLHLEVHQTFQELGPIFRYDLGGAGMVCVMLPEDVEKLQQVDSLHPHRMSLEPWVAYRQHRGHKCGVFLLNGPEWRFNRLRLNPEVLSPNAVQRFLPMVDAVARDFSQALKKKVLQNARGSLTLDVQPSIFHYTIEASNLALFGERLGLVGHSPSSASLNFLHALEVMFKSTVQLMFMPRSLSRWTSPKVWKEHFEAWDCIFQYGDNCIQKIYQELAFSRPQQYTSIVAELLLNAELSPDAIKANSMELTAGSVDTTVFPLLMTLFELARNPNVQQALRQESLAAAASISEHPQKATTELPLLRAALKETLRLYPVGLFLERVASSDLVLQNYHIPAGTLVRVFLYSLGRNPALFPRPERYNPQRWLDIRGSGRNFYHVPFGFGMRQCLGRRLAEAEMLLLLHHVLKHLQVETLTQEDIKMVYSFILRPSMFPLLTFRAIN
Chain of human CYP11B2 (P19099 25-503): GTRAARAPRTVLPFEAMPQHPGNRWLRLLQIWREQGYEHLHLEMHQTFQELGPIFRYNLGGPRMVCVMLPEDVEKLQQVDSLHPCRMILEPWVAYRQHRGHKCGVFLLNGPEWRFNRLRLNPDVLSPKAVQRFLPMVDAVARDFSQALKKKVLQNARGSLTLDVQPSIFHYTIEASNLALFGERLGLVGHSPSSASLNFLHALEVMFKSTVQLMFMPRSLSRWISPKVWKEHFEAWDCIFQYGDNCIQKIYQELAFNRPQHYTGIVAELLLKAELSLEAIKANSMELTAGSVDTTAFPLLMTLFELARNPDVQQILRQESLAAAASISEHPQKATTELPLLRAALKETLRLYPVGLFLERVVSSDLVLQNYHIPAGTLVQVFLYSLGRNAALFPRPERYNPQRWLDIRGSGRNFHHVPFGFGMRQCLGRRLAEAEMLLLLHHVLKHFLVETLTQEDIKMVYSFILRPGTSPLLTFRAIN

Row | SMILES | EC50 (human CYP11B2) [nM] | EC50 (human CYP11B1) [nM] | also measured
1 | OCCC1CCCc2c(-c3ccc(C(F)(F)F)cc3F)cncc21 (racemic) [Example 24, (rac)-2-[4-[2-Fluoro-4-(trifluoromethyl)phenyl]-5,6,7,8-tetrahydroisoquinolin-8-yl]ethanol] | 5 | 85 | –
2 | CNC(=O)CC1CCCc2c(-c3ccc(C(F)(F)F)cc3F)cncc21 (racemic) [Example 25, (rac)-2-[4-[2-Fluoro-4-(trifluoromethyl)phenyl]-5,6,7,8-tetrahydroisoquinolin-8-yl]-N-methyl-acetamide] | 11 | 1040 | –
3 | CN(C)C(=O)CC1CCCc2c(-c3ccc(C(F)(F)F)cc3F)cncc21 (racemic) [Example 26, (rac)-2-[4-[2-Fluoro-4-(trifluoromethyl)phenyl]-5,6,7,8-tetrahydroisoquinolin-8-yl]-N,N-dimethyl-acetamide] | 32 | 3080 | –
4 | CCNC(=O)CC1CCCc2c(-c3ccc(C(F)(F)F)cc3F)cncc21 (racemic) [Example 29, (rac)-N-Ethyl-2-[4-[2-fluoro-4-(trifluoromethyl)phenyl]-5,6,7,8-tetrahydroisoquinolin-8-yl]acetamide] | 212 | 4080 | –
5 | O=C(CC1CCCc2c(-c3ccc(C(F)(F)F)cc3F)cncc21)NC1CC1 (racemic) [Example 30, (rac)-N-Cyclopropyl-2-[4-[2-fluoro-4-(trifluoromethyl)phenyl]-5,6,7,8-tetrahydroisoquinolin-8-yl]acetamide] | 37 | 448 | –
6 | O=C(CC1CCCc2c(-c3ccc(C(F)(F)F)cc3F)cncc21)NCC1CC1 (racemic) [Example 31, (rac)-N-(Cyclopropylmethyl)-2-[4-[2-fluoro-4-(trifluoromethyl)phenyl]-5,6,7,8-tetrahydroisoquinolin-8-yl]acetamide] | 71 | 1780 | –
7 | COCCNC(=O)CC1CCCc2c(-c3ccc(C(F)(F)F)cc3F)cncc21 (racemic) [Example 32, (rac)-2-[4-[2-Fluoro-4-(trifluoromethyl)phenyl]-5,6,7,8-tetrahydroisoquinolin-8-yl]-N-(2-methoxyethyl)acetamide] | 222 | 5060 | –
8 | CN(C)C(=O)CC1CCCc2c(-c3ccc(C(F)(F)F)cc3F)cncc21 (single isomer, unassigned; (+)) [Example 27, (+)-(R or S)-2-[4-[2-fluoro-4-(trifluoromethyl)phenyl]-5,6,7,8-tetrahydroisoquinolin-8-yl]-N,N-dimethyl-acetamide] | 36 | 1490 | –
9 | CN(C)C(=O)CC1CCCc2c(-c3ccc(C(F)(F)F)cc3F)cncc21 (single isomer, unassigned; (-)) [Example 28, (−)-(R or S)-2-[4-[2-fluoro-4-(trifluoromethyl)phenyl]-5,6,7,8-tetrahydroisoquinolin-8-yl]-N,N-dimethyl-acetamide] | 133 | 9110 | –
10 | N#Cc1ccc([C@H]2CCCc3cncn32)cc1 [FAD286] | – | – | plasma aldosterone [1]: reduced; angiotensin II and salt-stimulated PAI-1 mRNA expression [1]: not; renal effects of angiotensin II and high salt (albuminuria, azotemia, renovascular hypertrophy, glomerular injury, PAI-1, osteopontin mRNA, tubulointerstitial fibrosis) [1]: prevented; blood pressure and cardiovascular function and structure [2]: improved; kidney function and morphology [2]: improve
11 | N#Cc1ccc([C@H]2CCc3cncn32)c(F)c1 [LCI699] | – | – | blood pressure [3]: mildly decreased; circulating aldosterone levels [3]: significantly lower; hypokalemia [3]: corrected
12 | CC(=O)S[C@@H]1CC2=CC(=O)CC[C@]2(C)[C@H]2CC[C@@]3(C)[C@@H](CC[C@@]34CCC(=O)O4)[C@H]12 [spironolactone] | – | – | plasma aldosterone [1]: increased; angiotensin II and salt-stimulated PAI-1 mRNA expression [1]: enhanced; renal effects of angiotensin II and high salt (albuminuria, azotemia, renovascular hypertrophy, glomerular injury, PAI-1, osteopontin mRNA, tubulointerstitial fibrosis) [1]: prevented
